Source: publication PMC6886798, “Expression of myeloid Src-family kinases is associated with poor prognosis in AML and influences Flt3-ITD kinase inhibitor acquired resistance” (PLoS ONE, 2019)

Assays:
Assay in all cases: KINOMEscan
Format in all cases: binding
Settings in all cases: 1.0 µM
p38-beta = target: T1, p38-beta (Homo sapiens, UniProt Q15759)
T1 construct: purchased Eurofins/DiscoverX KINOMEscan scanMAX
Description: (§1) Kinase retention to the immobilized ligand is then measured using quantitative real-time PCR for each kinase-specific DNA barcode.

STK36 = target: T2, STK36 (Homo sapiens, UniProt Q9NRP7)
T2 construct: purchased Eurofins/DiscoverX KINOMEscan scanMAX
Description: as §1

MEK3 = target: T3, MEK3 (Homo sapiens, UniProt P46734)
T3 construct: purchased Eurofins/DiscoverX KINOMEscan scanMAX
Description: as §1

ACVR1B = target: T4, ACVR1B (Homo sapiens, UniProt P36896)
T4 construct: purchased Eurofins/DiscoverX KINOMEscan scanMAX
Description: as §1

PIP5K1A = target: T5, PIP5K1A (Homo sapiens, UniProt Q99755)
T5 construct: purchased Eurofins/DiscoverX KINOMEscan scanMAX
Description: as §1

EPHA1 = target: T6, EPHA1 (Homo sapiens, UniProt P21709)
T6 construct: purchased Eurofins/DiscoverX KINOMEscan scanMAX
Description: as §1

DCAMKL1 = target: T7, DCAMKL1 (Homo sapiens, UniProt O15075)
T7 construct: purchased Eurofins/DiscoverX KINOMEscan scanMAX
Description: as §1

MTOR = target: T8, MTOR (Homo sapiens, UniProt P42345)
T8 construct: purchased Eurofins/DiscoverX KINOMEscan scanMAX
Description: as §1

ACVR1 = target: T9, ACVR1 (Homo sapiens, UniProt Q04771)
T9 construct: purchased Eurofins/DiscoverX KINOMEscan scanMAX
Description: as §1

PAK7 = target: T10, PAK7 (Homo sapiens, UniProt Q9P286)
T10 construct: purchased Eurofins/DiscoverX KINOMEscan scanMAX
Description: as §1

PIKFYVE = target: T11, PIKFYVE (Homo sapiens, UniProt Q9Y2I7)
T11 construct: purchased Eurofins/DiscoverX KINOMEscan scanMAX
Description: as §1

CSNK1G1 = target: T12, CSNK1G1 (Homo sapiens, UniProt Q9HCP0)
T12 construct: purchased Eurofins/DiscoverX KINOMEscan scanMAX
Description: as §1

PDGFRA = target: T13, PDGFRA (Homo sapiens, UniProt P16234)
T13 construct: purchased Eurofins/DiscoverX KINOMEscan scanMAX
Description: as §1

AXL = target: T14, AXL (Homo sapiens, UniProt P30530)
T14 construct: purchased Eurofins/DiscoverX KINOMEscan scanMAX
T14 sequence (P30530 26-894): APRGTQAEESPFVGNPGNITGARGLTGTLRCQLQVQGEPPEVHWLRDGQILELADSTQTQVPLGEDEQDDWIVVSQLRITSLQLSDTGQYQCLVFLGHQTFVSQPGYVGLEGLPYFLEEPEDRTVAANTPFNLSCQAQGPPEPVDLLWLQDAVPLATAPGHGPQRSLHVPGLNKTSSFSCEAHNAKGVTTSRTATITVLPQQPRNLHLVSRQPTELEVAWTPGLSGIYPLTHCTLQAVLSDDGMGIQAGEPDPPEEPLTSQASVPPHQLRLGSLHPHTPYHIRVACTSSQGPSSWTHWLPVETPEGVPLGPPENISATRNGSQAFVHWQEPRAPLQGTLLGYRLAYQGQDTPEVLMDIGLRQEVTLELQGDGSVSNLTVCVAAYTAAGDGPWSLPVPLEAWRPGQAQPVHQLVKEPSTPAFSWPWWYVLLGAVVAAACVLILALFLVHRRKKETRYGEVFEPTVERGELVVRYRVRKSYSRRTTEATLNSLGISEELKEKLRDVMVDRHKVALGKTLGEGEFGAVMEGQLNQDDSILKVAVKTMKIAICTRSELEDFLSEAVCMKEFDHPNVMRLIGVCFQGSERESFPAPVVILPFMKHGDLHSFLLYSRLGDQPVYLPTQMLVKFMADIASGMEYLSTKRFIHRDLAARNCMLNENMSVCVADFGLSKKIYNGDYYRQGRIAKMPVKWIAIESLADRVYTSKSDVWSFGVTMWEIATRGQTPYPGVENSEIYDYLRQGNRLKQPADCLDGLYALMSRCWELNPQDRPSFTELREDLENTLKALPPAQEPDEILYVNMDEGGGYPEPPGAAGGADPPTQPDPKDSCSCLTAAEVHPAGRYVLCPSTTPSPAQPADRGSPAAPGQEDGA
Description: as §1

GRK7 = target: T15, GRK7 (Homo sapiens, UniProt Q8WTQ7)
T15 construct: purchased Eurofins/DiscoverX KINOMEscan scanMAX
Description: as §1

TRPM6 = target: T16, TRPM6 (Homo sapiens, UniProt Q9BX84)
T16 construct: DNA tag (qPCR barcode); purchased Eurofins/DiscoverX KINOMEscan scanMAX
T16 sequence (Q9BX84 whole entry): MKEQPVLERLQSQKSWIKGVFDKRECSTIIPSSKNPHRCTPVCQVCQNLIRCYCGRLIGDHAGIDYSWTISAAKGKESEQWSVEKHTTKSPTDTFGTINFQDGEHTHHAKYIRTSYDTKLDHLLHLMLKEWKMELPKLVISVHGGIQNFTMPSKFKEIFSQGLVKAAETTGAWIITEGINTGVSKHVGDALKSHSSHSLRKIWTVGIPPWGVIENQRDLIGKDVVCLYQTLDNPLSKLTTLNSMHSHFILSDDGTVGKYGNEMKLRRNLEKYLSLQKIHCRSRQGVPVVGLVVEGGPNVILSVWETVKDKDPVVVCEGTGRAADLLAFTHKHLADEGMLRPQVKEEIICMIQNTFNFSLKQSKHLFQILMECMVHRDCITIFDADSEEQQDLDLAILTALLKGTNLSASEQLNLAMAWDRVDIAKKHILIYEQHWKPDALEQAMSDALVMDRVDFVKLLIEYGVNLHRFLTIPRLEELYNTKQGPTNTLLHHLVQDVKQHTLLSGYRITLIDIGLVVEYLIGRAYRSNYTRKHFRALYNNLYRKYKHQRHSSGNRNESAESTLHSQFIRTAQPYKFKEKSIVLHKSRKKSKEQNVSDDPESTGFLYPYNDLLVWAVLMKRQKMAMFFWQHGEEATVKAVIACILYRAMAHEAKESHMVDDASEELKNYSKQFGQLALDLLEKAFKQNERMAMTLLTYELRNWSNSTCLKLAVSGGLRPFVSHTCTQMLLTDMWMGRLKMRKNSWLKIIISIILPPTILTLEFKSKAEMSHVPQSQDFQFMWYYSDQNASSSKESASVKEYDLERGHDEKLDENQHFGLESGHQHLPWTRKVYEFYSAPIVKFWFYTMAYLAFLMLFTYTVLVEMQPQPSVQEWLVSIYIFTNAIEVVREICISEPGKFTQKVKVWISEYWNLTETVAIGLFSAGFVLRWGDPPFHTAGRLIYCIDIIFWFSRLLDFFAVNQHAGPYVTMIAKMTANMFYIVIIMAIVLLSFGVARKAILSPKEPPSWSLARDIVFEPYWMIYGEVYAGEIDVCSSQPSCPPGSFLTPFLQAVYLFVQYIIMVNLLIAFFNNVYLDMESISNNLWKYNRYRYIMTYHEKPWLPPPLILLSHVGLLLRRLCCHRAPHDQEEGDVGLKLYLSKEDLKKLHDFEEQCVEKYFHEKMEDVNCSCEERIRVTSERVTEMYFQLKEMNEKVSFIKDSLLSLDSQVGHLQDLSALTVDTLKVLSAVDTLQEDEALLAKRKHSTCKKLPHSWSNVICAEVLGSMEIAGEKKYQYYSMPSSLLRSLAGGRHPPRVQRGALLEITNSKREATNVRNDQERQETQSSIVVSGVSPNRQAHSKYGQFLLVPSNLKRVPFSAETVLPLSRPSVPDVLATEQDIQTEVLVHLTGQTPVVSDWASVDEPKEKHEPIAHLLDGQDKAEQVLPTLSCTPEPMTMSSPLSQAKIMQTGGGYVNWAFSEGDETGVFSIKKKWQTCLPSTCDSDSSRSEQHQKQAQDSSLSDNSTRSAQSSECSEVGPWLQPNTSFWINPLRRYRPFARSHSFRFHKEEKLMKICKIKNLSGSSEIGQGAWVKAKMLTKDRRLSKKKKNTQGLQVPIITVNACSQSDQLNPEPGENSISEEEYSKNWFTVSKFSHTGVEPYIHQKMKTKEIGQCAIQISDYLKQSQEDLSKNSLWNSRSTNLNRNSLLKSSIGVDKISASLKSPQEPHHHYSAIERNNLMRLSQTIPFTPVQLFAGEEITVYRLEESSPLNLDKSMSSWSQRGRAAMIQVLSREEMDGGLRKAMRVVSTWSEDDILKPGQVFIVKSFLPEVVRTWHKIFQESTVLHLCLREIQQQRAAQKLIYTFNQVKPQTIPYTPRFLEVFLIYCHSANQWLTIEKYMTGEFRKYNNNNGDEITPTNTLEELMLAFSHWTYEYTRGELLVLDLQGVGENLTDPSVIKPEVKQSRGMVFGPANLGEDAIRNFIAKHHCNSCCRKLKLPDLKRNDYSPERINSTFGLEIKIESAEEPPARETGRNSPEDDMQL
Description: as §1

[1] = target: T17, ABL1(E255K)-phosphorylated (Homo sapiens, UniProt P00519, E255K)
T17 construct: purchased Eurofins/DiscoverX KINOMEscan scanMAX
Description: as §1

FLT3(K663Q) = target: T18, FLT3(K663Q) (Homo sapiens, UniProt P36888, K663Q)
T18 construct: purchased Eurofins/DiscoverX KINOMEscan scanMAX
Description: as §1

BUB1 = target: T19, BUB1 (Homo sapiens, UniProt O43683)
T19 construct: purchased Eurofins/DiscoverX KINOMEscan scanMAX
Description: as §1

[2] = target: T20, TYK2(JH2domain-pseudokinase) (Homo sapiens, UniProt P29597)
T20 construct: TYK2(JH2domain-pseudokinase); DNA tag (qPCR barcode); purchased Eurofins/DiscoverX KINOMEscan scanMAX
T20 sequence (P29597 589-875 limits assumed): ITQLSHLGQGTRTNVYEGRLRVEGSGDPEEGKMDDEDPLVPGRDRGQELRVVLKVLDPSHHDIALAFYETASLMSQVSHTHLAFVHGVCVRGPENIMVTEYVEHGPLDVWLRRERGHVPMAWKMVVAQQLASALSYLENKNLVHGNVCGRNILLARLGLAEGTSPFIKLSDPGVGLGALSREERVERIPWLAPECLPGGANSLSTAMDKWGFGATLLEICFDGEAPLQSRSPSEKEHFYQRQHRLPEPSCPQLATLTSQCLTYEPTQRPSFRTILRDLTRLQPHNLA
Description: as §1

IKK-alpha = target: T21, IKK-alpha (Homo sapiens, UniProt O15111)
T21 construct: purchased Eurofins/DiscoverX KINOMEscan scanMAX
Description: as §1

CDC2L2 = target: T22, CDC2L2 (Homo sapiens, UniProt Q9UQ88)
T22 construct: purchased Eurofins/DiscoverX KINOMEscan scanMAX
Description: as §1

[3] = target: T23, ABL1(Q252H)-nonphosphorylated (Homo sapiens, UniProt P00519, Q252H)
T23 construct: purchased Eurofins/DiscoverX KINOMEscan scanMAX
Description: as §1

LOK = target: T24, LOK (Homo sapiens, UniProt O94804)
T24 construct: purchased Eurofins/DiscoverX KINOMEscan scanMAX
T24 sequence (O94804 whole entry): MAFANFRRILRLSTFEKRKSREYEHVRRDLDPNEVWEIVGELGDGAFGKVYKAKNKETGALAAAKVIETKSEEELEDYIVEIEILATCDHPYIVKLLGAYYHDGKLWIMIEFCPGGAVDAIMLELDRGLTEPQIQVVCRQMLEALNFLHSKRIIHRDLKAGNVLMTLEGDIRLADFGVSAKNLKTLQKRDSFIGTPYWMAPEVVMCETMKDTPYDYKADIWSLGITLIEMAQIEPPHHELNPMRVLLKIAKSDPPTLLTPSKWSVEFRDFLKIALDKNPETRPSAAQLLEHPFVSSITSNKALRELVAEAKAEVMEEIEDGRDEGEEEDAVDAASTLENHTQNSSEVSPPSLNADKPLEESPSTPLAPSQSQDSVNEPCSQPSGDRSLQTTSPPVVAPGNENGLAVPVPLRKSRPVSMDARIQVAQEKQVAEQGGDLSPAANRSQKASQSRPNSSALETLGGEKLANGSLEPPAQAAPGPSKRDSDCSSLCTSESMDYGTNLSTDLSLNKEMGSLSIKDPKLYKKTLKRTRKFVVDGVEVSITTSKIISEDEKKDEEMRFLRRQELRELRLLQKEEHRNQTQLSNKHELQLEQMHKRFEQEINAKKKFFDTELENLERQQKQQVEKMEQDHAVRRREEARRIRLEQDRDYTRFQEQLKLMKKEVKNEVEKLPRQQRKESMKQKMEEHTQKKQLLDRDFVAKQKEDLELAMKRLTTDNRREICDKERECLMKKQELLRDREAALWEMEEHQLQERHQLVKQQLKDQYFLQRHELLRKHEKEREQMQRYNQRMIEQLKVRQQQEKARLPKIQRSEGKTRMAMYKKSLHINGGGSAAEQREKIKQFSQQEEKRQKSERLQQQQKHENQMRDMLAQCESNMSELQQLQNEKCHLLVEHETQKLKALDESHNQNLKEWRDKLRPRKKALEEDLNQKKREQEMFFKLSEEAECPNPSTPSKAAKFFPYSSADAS
Description: as §1

RET(V804L) = target: T25, RET(V804L) (Homo sapiens, UniProt P07949, V804L)
T25 construct: purchased Eurofins/DiscoverX KINOMEscan scanMAX
Description: as §1

KIT(D816V) = target: T26, KIT(D816V) (Homo sapiens, UniProt P10721, D816V)
T26 construct: purchased Eurofins/DiscoverX KINOMEscan scanMAX
Description: as §1

[4] = target: T27, JAK1(JH2domain-pseudokinase) (Homo sapiens, UniProt P23458)
T27 construct: JAK1(JH2domain-pseudokinase); purchased Eurofins/DiscoverX KINOMEscan scanMAX
T27 sequence (P23458 561-860 limits assumed): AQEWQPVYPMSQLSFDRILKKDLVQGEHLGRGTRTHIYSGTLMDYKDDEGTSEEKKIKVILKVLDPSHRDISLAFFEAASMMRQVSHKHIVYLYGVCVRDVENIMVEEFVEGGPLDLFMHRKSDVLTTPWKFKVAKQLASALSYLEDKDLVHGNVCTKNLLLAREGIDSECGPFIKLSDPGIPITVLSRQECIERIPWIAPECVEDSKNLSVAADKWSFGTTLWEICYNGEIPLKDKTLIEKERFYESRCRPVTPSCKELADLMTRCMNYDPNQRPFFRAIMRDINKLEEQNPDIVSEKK
Description: as §1

ALK(C1156Y) = target: T28, ALK(C1156Y) (Homo sapiens, UniProt Q9UM73, C1156Y)
T28 construct: purchased Eurofins/DiscoverX KINOMEscan scanMAX
Description: as §1

CDK2 = target: T29, CDK2 (Homo sapiens, UniProt P24941)
T29 construct: purchased Eurofins/DiscoverX KINOMEscan scanMAX
Description: as §1

MINK = target: T30, MINK (Homo sapiens, UniProt Q8N4C8)
T30 construct: purchased Eurofins/DiscoverX KINOMEscan scanMAX
Description: as §1

BRAF(V600E) = target: T31, BRAF(V600E) (Homo sapiens, UniProt P15056, V600E)
T31 construct: purchased Eurofins/DiscoverX KINOMEscan scanMAX
Description: as §1

ICK = target: T32, ICK (Homo sapiens, UniProt Q9UPZ9)
T32 construct: purchased Eurofins/DiscoverX KINOMEscan scanMAX
T32 sequence (Q9UPZ9 whole entry): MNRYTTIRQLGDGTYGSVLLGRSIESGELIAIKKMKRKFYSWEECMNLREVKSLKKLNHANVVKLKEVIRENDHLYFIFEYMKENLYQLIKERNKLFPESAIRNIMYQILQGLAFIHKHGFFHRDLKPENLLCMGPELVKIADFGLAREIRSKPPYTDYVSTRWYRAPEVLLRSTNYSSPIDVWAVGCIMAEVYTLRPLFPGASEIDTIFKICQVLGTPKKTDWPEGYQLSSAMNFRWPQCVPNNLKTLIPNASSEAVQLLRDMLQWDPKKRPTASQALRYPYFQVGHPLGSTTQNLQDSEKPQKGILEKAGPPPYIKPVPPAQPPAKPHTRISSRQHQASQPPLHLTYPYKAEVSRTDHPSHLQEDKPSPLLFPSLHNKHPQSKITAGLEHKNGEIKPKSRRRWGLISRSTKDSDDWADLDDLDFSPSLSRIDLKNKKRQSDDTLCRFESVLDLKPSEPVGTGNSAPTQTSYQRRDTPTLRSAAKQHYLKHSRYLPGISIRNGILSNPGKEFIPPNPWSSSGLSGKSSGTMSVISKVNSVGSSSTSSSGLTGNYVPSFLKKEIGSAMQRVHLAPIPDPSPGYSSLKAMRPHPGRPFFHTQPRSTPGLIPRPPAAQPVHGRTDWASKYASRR
Description: as §1

CAMK1B = target: T33, CAMK1B (Homo sapiens, UniProt Q6P2M8)
T33 construct: purchased Eurofins/DiscoverX KINOMEscan scanMAX
Description: as §1

[5] = target: T34, RSK4(Kin.Dom.2-C-terminal) (Homo sapiens, UniProt Q9UK32)
T34 construct: RSK4(Kin.Dom.2-C-terminal); purchased Eurofins/DiscoverX KINOMEscan scanMAX
Description: as §1

AKT1 = target: T35, AKT1 (Homo sapiens, UniProt P31749)
T35 construct: purchased Eurofins/DiscoverX KINOMEscan scanMAX
Description: as §1

IGF1R = target: T36, IGF1R (Homo sapiens, UniProt P08069)
T36 construct: purchased Eurofins/DiscoverX KINOMEscan scanMAX
Description: as §1

STK33 = target: T37, STK33 (Homo sapiens, UniProt Q9BYT3)
T37 construct: purchased Eurofins/DiscoverX KINOMEscan scanMAX
Description: as §1

QSK = target: T38, QSK (Homo sapiens, UniProt Q9Y2K2)
T38 construct: purchased Eurofins/DiscoverX KINOMEscan scanMAX
Description: as §1

LATS2 = target: T39, LATS2 (Homo sapiens, UniProt Q9NRM7)
T39 construct: purchased Eurofins/DiscoverX KINOMEscan scanMAX
Description: as §1

ROS1 = target: T40, ROS1 (Homo sapiens, UniProt P08922)
T40 construct: purchased Eurofins/DiscoverX KINOMEscan scanMAX
Description: as §1

CN1CCN(C2CCC(n3cc(-c4ccc(Oc5ccccc5)cc4)c4c(N)ncnc43)CC2)CC1 (stereo not shown) [A-419259]
% Control (p38-beta): 100%
% Control (STK36): 18%
% Control (MEK3): 91%
% Control (ACVR1B): 100%
% Control (PIP5K1A): 100%
% Control (EPHA1): 58%
% Control (DCAMKL1): 43%
% Control (MTOR): 90%
% Control (ACVR1): 100%
% Control (PAK7): 89%
% Control (PIKFYVE): 78%
% Control (CSNK1G1): 80%
% Control (PDGFRA): 1.1%
% Control (AXL): 6.1%
% Control (GRK7): 62%
% Control (TRPM6): 100%
% Control [1]: 0.5%
% Control (FLT3(K663Q)): 5.6%
% Control (BUB1): 100%
% Control [2]: 95%
% Control (IKK-alpha): 90%
% Control (CDC2L2): 91%
% Control [3]: 0.85%
% Control (LOK): 20%
% Control (RET(V804L)): 24%
% Control (KIT(D816V)): 70%
% Control [4]: 100%
% Control (ALK(C1156Y)): 21%
% Control (CDK2): 70%
% Control (MINK): 30%
% Control (BRAF(V600E)): 45%
% Control (ICK): 97%
% Control (CAMK1B): 100%
% Control [5]: 94%
% Control (AKT1): 100%
% Control (IGF1R): 80%
% Control (STK33): 30%
% Control (QSK): 93%
% Control (LATS2): 18%
% Control (ROS1): 100%
